Reference: US20050245399A1, “Pyrazole derivatives as herbicidal compositions containing them” (ISHIHARA SANGYO KAISHA, LTD., priority 2004, published 2005)

Key:
Type in all cases: in vivo
[1] = system: barnyardgrass (Echinochloa crus-galli L.), ECHCG; assay: Test Example 2 post-emergence (foliage treatment) herbicidal activity, ECHCG
Summary of the method: (§1)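 Post-emergence, upland soil pots; leaf stage at spray: ECHCG 1.1-2.1 / DIGSA 1.0-2.0 / AMARE 0.1-1.5 / ORYSA 1.0-2. WP or EC formulation, set active ingredient rate, 500 L/ha water + 0.1% v/v spreader. Visual rating at d20-23, % control 0-100.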

[2] = system: barnyardgrass (Echinochloa crus-galli L.): ECHCG; assay: Test Example 1 pre-emergence herbicidal activity, ECHCG; conditions: visually observed 20th to 23rd day after application
Summary of the method: (§2)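 Read-out: visual growth control (%, 0–100, 100 = complete kill) assessed 20 to 23 days post-treatment. Compound was applied pre-emergence by small sprayer, one day after sowing into upland soil pots, in 500 L/ha water.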

[3] = system: corn (Zea mays L.), ZEAMX; assay: Test Example 2 post-emergence (foliage treatment) herbicidal activity, ZEAMX
Summary of the method: (§3)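 Each species was evaluated for growth suppression by eye, 0% matching untreated and 100% meaning death, some 20 to 23 days after a single post-emergence foliar treatment applied in 500 L/ha of water carrying 0.1% (v/v) agricultural spreader.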

[4] = system: soybean (Glycine max Merr.), GLXMA; assay: Test Example 2 post-emergence (foliage treatment) herbicidal activity, GLXMA
Summary of the method: as §3

[5] = system: prickly sida (Sida spinosa L.): SEDSP; assay: Test Example 1 pre-emergence herbicidal activity, SIDSP; conditions: visually observed 20th to 23rd day after application
Summary of the method: as §2

[6] = system: corn (Zea mays L.): ZEAMX; assay: Test Example 1 pre-emergence herbicidal activity, ZEAMX; conditions: visually observed 20th to 23rd day after application
Summary of the method: as §2

[7] = system: rice (Oryza sativa L.), ORYSA; assay: Test Example 2 post-emergence (foliage treatment) herbicidal activity, ORYSA
Summary of the method: as §1

[8] = system: wheat (Triticum aestivum L.), TRZAX; assay: Test Example 2 post-emergence (foliage treatment) herbicidal activity, TRZAX
Summary of the method: as §3

[9] = system: green foxtail (Setaria viridis L.), SETVI; assay: Test Example 2 post-emergence (foliage treatment) herbicidal activity, SETVI
Summary of the method: as §3

[10] = system: redroot pigweed (Amaranthus retroflexus L.), AMARE; assay: Test Example 2 post-emergence (foliage treatment) herbicidal activity, AMARE
Summary of the method: as §1

[11] = system: prickly sida (Sida spinosa L.), SIDSP; assay: Test Example 2 post-emergence (foliage treatment) herbicidal activity, SIDSP
Summary of the method: as §3

[12] = system: rice (Oryza sativa L.): ORYSA; assay: Test Example 1 pre-emergence herbicidal activity, ORYSA; conditions: visually observed 20th to 23rd day after application
Summary of the method: as §2

[13] = system: crabgrass (Digitaria sanguinalis L.): DIGSA; assay: Test Example 1 pre-emergence herbicidal activity, DIGSA; conditions: visually observed 20th to 23rd day after application
Summary of the method: as §2

[14] = system: barnyardgrass (Echinochiloa oryzicola: ECHOR); assay: Test Example 3 water application herbicidal activity (paddy), ECHOR; conditions: 63 g a.i./ha, water application under submerged condition at 0.5 leaf stage, visually observed 14th day after application; 0 = untreated control, 100 = complete kill
Summary of the method: (§4)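 Compound, as diluted wettable powder or emulsifiable concentrate, was pipetted into flood water at a set active-ingredient dose. Weeds were treated at 0.5-leaf stage after sowing or tuber planting; 2-leaf rice 4 days post-transplant. Control scored visually, 0 untreated to 100 complete kill, weeds day 14, rice day 21.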

[15] = system: velvetleaf (Abutilon theophrasti), ABUTH; assay: Test Example 2 post-emergence (foliage treatment) herbicidal activity, ABUTH
Summary of the method: as §3

[16] = system: japanese ribbon wapato (Sagittaria pygmaea: SA GPY); assay: Test Example 3 water application herbicidal activity (paddy), SAGPY; conditions: 63 g a.i./ha, water application under submerged condition, tubers planted, visually observed 14th day after application; 0 = untreated control, 100 = complete kill
Summary of the method: as §4

[17] = system: japanese bulrush (Scirpus juncoides: SCPJO); assay: Test Example 3 water application herbicidal activity (paddy), SCPJO; conditions: 63 g a.i./ha, water application under submerged condition at 0.5 leaf stage, visually observed 14th day after application; 0 = untreated control, 100 = complete kill
Summary of the method: as §4

[18] = system: green foxtail (Setaria viridis L.): SETVI; assay: Test Example 1 pre-emergence herbicidal activity, SETVI; conditions: visually observed 20th to 23rd day after application
Summary of the method: as §2

[19] = system: rice (Oryza sativa L.: ORYSA); assay: Test Example 3 water application herbicidal activity (paddy), transplanted rice ORYSA; conditions: 63 g a.i./ha, water application 4th day after transplantation of 2 leaf stage rice, visually observed 21st day after application; 0 = untreated control, 100 = complete kill
From the text: Paddy field soil was put into a 1/1,000,000 ha pot and seeds of barnyardgrass (Echinochiloa oryzicola: ECHOR) and japanese bulrush (Scirpus juncoides: SCPJO) were sown and slightly covered with soil. Then the pot was left to stand still in a greenhouse in a state where the depth of flooding water was from 0.5 to 1 cm, and one day later, tubers of japanese ribbon wapato (Sagittaria pygmaea: SA GPY) were planted. Thereafter, the depth of flooding water was maintained at a level of from 3 to 4 cm, and when barnyardgrass and japanese bulrush reached a 0.5 leaf stage, an aqueous diluted solution of a wettable powder or emulsifiable concentrate having the compound of the present invention formulated in accordance with a usual formulation method, was uniformly applied under submerged condition by a pipette so that the dose of the active ingredient would be at a predetermined level. On the other hand, paddy filed soil was put into a 1/1,000,000 ha pot and puddled and leveled, and the depth of flooding water was from 3 to 4 cm. One day later, rice (Oryza sativa L.: ORYSA) of 2 leaf stage was transplanted in a depth of 3 cm. On the 4th day after the transplantation, the compound of the present invention was applied in the same manner as described above. On the 14th day after the application of the herbicide, the growth of barnyardgrass, japanese burlush and japanese ribbon wapato was visually observed and on the 21st day after the application of the herbicide, the growth of rice was visually observed, and the herbicidal effects were evaluated by growth controlling degrees (%) ranging from 0 (equivalent to the untreated control) to 100 (complete kill), whereby the results shown in Table 6, were obtained. Compound Nos. in Table 6 correspond to Compound Nos. in Table 1 and 2 given hereinbefore.

[20] = system: crabgrass (Digitaria sanguinalis L.), DIGSA; assay: Test Example 2 post-emergence (foliage treatment) herbicidal activity, DIGSA
Summary of the method: as §1

[21] = system: velvetleaf (Abutilon theophrasti): ABUTH; assay: Test Example 1 pre-emergence herbicidal activity, ABUTH; conditions: visually observed 20th to 23rd day after application
Summary of the method: as §2

[22] = system: wheat (Triticum aestivum L.): TRZAX; assay: Test Example 1 pre-emergence herbicidal activity, TRZAX; conditions: visually observed 20th to 23rd day after application
Summary of the method: as §2

[23] = system: soybean (Glycine max Merr.): GLXMA; assay: Test Example 1 pre-emergence herbicidal activity, GLXMA; conditions: visually observed 20th to 23rd day after application
Summary of the method: as §2

[24] = system: redroot pigweed (Amaranthus retroflexus L.): AMARE; assay: Test Example 1 pre-emergence herbicidal activity, AMARE; conditions: Rate 63 g a.i./ha, visually observed 20th to 23rd day after application
Summary of the method: as §2

Row | SMILES | growth controlling degree, ECHCO ([1]; 63 g a.i./ha) [%] | growth controlling degree, ZEAMX ([3]; 63 g a.i./ha) [%] | growth controlling degree, GLXMA ([4]; 63 g a.i./ha) [%] | growth controlling degree, ORYSA ([7]; 63 g a.i./ha) [%] | growth controlling degree, TRZAX ([8]; 63 g a.i./ha) [%] | growth controlling degree, AMARE ([10]; 63 g a.i./ha) [%] | growth controlling degree, SIDSP ([11]; 63 g a.i./ha) [%] | growth controlling degrees (%) ECHOR [14] [%] | growth controlling degree, ABUTH ([15]; 63 g a.i./ha) [%] | growth controlling degrees (%) SAGPY [16] [%] | growth controlling degrees (%) SCPJO [17] [%] | growth controlling degrees (%) ORYSA [19] [%] | growth controlling degree, DIGSP ([20]; 63 g a.i./ha) [%] | Pre-emergence Herbicidal Activity ECHCG (growth controlling degree) ([2]; Rate 63 g a.i./ha) [%] | Pre-emergence Herbicidal Activity ZEAMX (growth controlling degree) ([6]; Rate 63 g a.i./ha) [%] | Pre-emergence Herbicidal Activity ORYSA (growth controlling degree) ([12]; Rate 63 g a.i./ha) [%] | Pre-emergence Herbicidal Activity DIGSP (growth controlling degree) ([13]; Rate 63 g a.i./ha) [%] | Pre-emergence Herbicidal Activity AMARE (growth controlling degree) [24] [%] | Pre-emergence Herbicidal Activity SETVI (growth controlling degree) ([18]; Rate 63 g a.i./ha) [%] | Pre-emergence Herbicidal Activity ABUTH (growth controlling degree) ([21]; Rate 63 g a.i./ha) [%] | other results
1 | CCOC(=O)CN(C=O)c1c(OC)c(Cl)cc(F)c1-c1nn(C)c(OC(F)F)c1Cl [Compound 1-19] | 30 | 0 | 60 | 20 | 10 | 100 | 90 | 70 | 90 | 20 | 30 | 30 | 30 |  |  |  |  |  |  |  | Pre-emergence Herbicidal Activity ECHCG (growth controlling degree) ([2]; Rate 125 g a.i./ha): 0%; Pre-emergence Herbicidal Activity SIDSP (growth controlling degree) ([5]; Rate 125 g a.i./ha): 50%; Pre-emergence Herbicidal Activity ZEAMX (growth controlling degree) ([6]; Rate 125 g a.i./ha): 20%; growth controlling degree, SETVI ([9]; 63 g a.i./ha): 30%; Pre-emergence Herbicidal Activity ORYSA (growth controlling degree) ([12]; Rate 125 g a.i./ha): 0%; Pre-emergence Herbicidal Activity DIGSP (growth controlling degree) ([13]; Rate 125 g a.i./ha): 50%; Pre-emergence Herbicidal Activity SETVI (growth controlling degree) ([18]; Rate 125 g a.i./ha): 10%; Pre-emergence Herbicidal Activity ABUTH (growth controlling degree) ([21]; Rate 125 g a.i./ha): 20%; Pre-emergence Herbicidal Activity TRZAX (growth controlling degree) ([22]; Rate 125 g a.i./ha): 0%; Pre-emergence Herbicidal Activity GLXMA (growth controlling degree) ([23]; Rate 125 g a.i./ha): 0%
2 | COc1c(Cl)cc(F)c(-c2nn(C)c(OC(F)F)c2Cl)c1NC(=O)c1ccc(C#N)cc1 [Compound 1-32] | 95 | 95 | 80 | 90 | 50 | 100 | 100 | 100 | 100 | 100 | 70 | 50 | 70 | 95 | 10 | 60 | 100 | 100 | 100 | 100 | Pre-emergence Herbicidal Activity SIDSP (growth controlling degree) ([5]; Rate 63 g a.i./ha): 100%; Pre-emergence Herbicidal Activity TRZAX (growth controlling degree) ([22]; Rate 63 g a.i./ha): 10%; Pre-emergence Herbicidal Activity GLXMA (growth controlling degree) ([23]; Rate 63 g a.i./ha): 10%
3 | CCOC(=O)Nc1c(OC)c(Cl)cc(F)c1-c1nn(C)c(OC(F)F)c1Cl [Compound 1-273] | 30 | 10 | 60 | 10 | 20 | 100 | 90 | 70 | 98 | 0 | 0 | 30 | 20 | 0 | 0 | 10 | 30 | 80 | 20 | 10 | Pre-emergence Herbicidal Activity TRZAX (growth controlling degree) ([22]; Rate 63 g a.i./ha): 0%; Pre-emergence Herbicidal Activity GLXMA (growth controlling degree) ([23]; Rate 63 g a.i./ha): 0%
4 | COc1c(Cl)cc(F)c(-c2nn(C)c(OC(F)F)c2Cl)c1[N+](=O)[O-] [Compound 2-21, 4-chloro-3-(4-chloro-6-fluoro-3-methoxy-2-nitrophenyl)-5-(difluoromethoxy)-1-methyl-1H-pyrazole] |  |  |  |  |  |  |  | 100 |  | 100 | 98 | 40 |  |  |  |  |  |  |  |  | growth controlling degree, ECHCO ([1]; 31 g a.i./ha): 100%; growth controlling degree, ZEAMX ([3]; 31 g a.i./ha): 80%; growth controlling degree, GLXMA ([4]; 31 g a.i./ha): 90%; growth controlling degree, ORYSA ([7]; 31 g a.i./ha): 90%; growth controlling degree, TRZAX ([8]; 31 g a.i./ha): 40%; growth controlling degree, SETVI ([9]; 31 g a.i./ha): 100%; growth controlling degree, AMARE ([10]; 31 g a.i./ha): 100%; growth controlling degree, SIDSP ([11]; 31 g a.i./ha): 100%; growth controlling degree, ABUTH ([15]; 31 g a.i./ha): 100%; growth controlling degree, DIGSP ([20]; 31 g a.i./ha): 95%
